Reference: patent US11034698B2, “Pyrazolo[ 1,5a]pyrimidine derivatives as IRAK4 modulators” (priority 2017, dated 2021)
Counter-ions that a name gives are not always drawn.

biological target: human IRAK4 (Homo sapiens (Human), UniProt Q9NWZ3); experiment: IRAK4 kinase inhibition, Transcreener fluorescence polarization (ADP); type: biochemical; conditions: recombinant full-length His6-IRAK4 1.25 nM; 125 uM ATP; 125 uM peptide; 90 min; ATP Km 642 uM; read-out: IRAK4 Ki
Procedure: Compounds were assayed for inhibition of human IRAK4 and IRAK1 catalytic activity using recombinant enzyme produced from insect cells. Full-length IRAK4 protein, carrying an N-terminal His6-Tag, was obtained from Life Technologies (Carlsbad, Calif., USA). The IRAK1 construct was produced internally and was comprised of IRAK1 residues Arg194 to Ser712, preceded by an NH2-terminal His6 tag and the coding sequence for glutathione-S-transferase.
Kinase activities were assayed using the Transcreener-Fluorecescence polarization platform (BelBrook Labs, Madison, Wis., USA) that measures amounts of the reaction product, ADP.

Chain of human IRAK4 (Q9NWZ3 whole entry, the tested form may be a part): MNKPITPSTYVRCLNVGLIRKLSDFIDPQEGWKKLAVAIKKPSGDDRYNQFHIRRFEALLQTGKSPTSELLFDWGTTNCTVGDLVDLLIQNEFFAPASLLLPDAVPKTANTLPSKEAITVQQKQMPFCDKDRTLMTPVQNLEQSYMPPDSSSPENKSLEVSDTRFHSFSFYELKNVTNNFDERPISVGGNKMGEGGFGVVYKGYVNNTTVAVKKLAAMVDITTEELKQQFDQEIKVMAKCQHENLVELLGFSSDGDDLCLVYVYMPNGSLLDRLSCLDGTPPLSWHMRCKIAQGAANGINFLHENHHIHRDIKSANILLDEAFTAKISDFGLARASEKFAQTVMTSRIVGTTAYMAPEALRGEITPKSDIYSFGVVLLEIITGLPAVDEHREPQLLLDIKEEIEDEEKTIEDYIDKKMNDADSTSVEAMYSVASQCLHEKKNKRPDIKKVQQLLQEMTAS

Compound	Ki [nM]
CN1C[C@H](COc2cc3c(cc2NC(=O)c2cnn4cccnc24)CC(C)(C)O3)CC1=O [Example 24, (R)-N-(2,2-Dimethyl-6-((1-methyl-5-oxopyrrolidin-3-yl)methoxy)-2,3-dihydrobenzofuran-5-yl)pyrazolo[1,5-a]pyrimidine-3-carboxamide]	160
CC1(C)Cc2cc(NC(=O)c3cnn4cccnc34)c(OC[C@@H]3Cc4ccccc4[C@H]3N)cc2O1 [Example 26, N-[6-[[(1S,2R)-1-Aminoindan-2-yl]methoxy]-2,2-dimethyl-3H-benzofuran-5-yl]pyrazolo[1,5-a]pyrimidine-3-carboxamide]	280
CC1(C)Cc2cc(NC(=O)c3cnn4cccnc34)c(OC[C@H]3C[C@@H]4NCCO[C@H]4C3)cc2O1 [Example 30, N-(2,2-Dimethyl-6-(((4aS,6S,7aS)-octahydrocyclopenta[b][1,4]oxazin-6-yl)methoxy)-2,3-dihydrobenzofuran-5-yl)pyrazolo[1,5-a]pyrimidine-3-carboxamide]	66
COc1cc2c(cc1NC(=O)c1cnn3ccc(C4CCNC4=O)nc13)CC(C)(C)O2 (stereo not drawn) [Example 35, N-(6-Methoxy-2,2-dimethyl-2,3-dihydrobenzofuran-5-yl)-5-(2-oxopyrrolidin-3-yl)pyrazolo[1,5-a]pyrimidine-3-carboxamide]	100
COc1cc2c(cc1NC(=O)c1cnn3ccc(N4C[C@@H](N)CC(F)(F)C4)nc13)CC(C)(C)O2 [Example 36, (S)-5-(5-Amino-3,3-difluoropiperidin-1-yl)-N-(6-methoxy-2,2-dimethyl-2,3-dihydrobenzofuran-5-yl)pyrazolo[1,5-a]pyrimidine-3-carboxamide]	14
COc1cc2c(cc1NC(=O)c1cnn3ccc(N(C)C4CC4)nc13)CC(C)(C)O2 [Example 38, 5-(Cyclopropyl(methyl)amino)-N-(6-methoxy-2,2-dimethyl-2,3-dihvdrobenzofuran-5-yl)pyrazolo[1,5-a]pyrimidine-3-carboxamide]	180
COc1cc2c(cc1NC(=O)c1cnn3ccc(N4CCC[C@@H](N)C4)nc13)CC(C)(C)O2 [Example 39, (R)-5-(3-Aminopiperidin-1-yl)-N-(6-methoxy-2,2-dimethyl-2,3-dihydrobenzofuran-5-yl)pyrazolo[1,5-a]pyrimidine-3-carboxamide]	4.1
COc1cc2c(cc1NC(=O)c1cnn3ccc(N[C@@H]4CCCNC4)nc13)CC(C)(C)O2 [Example 40, (R)-N-(6-Methoxy-2,2-dimethyl-2,3-dihydrobenzofuran-5-yl)-5-(piperidin-3-ylamino)pyrazolo[1,5-a]pyrimidine-3-carboxamide]	0.87
COc1cc2c(cc1NC(=O)c1cnn3ccc(N)nc13)CC(C)(C)O2 [Example 41, 5-amino-N-(6-Methoxy-2,2-dimethyl-2,3-dihydrobenzofuran-5-yl)pyrazolo[1,5-a]pyrimidine-3-carboxamide]	4.6
COc1cc2c(cc1NC(=O)c1cnn3ccc(N4CCNCC4)nc13)CC(C)(C)O2 [Example 42, N-(6-Methoxy-2,2-dimethyl-2,3-dihydrobenzofuran-5-yl)-5-(piperazin-1-yl)pyrazolo[1,5-a]pyrimidine-3-carboxamide]	22
COc1cc2c(cc1NC(=O)c1cnn3ccc(NCCN)nc13)CC(C)(C)O2 [Example 43, 5-((2-Aminoethyl)amino)-N-(6-methoxy-2,2-dimethyl-2,3-dihydrobenzofuran-5-yl)pyrazolo[1,5-a]pyrimidine-3-carboxamide]	3.2
COc1cc2c(cc1NC(=O)c1cnn3ccc(N(C)C)nc13)CC(C)(C)O2 [Example 44, 5-(Dimethylamino)-N-(6-methoxy-2,2-dimethyl-2,3-dihydrobenzofuran-5-yl)pyrazolo[1,5-a]pyrimidine-3-carboxamide]	220
CC1(C)Cc2cc3c(cc2O1)N1CCN(CCNc2ccn4ncc(c4n2)C(=O)N3)CC1 [Example 45, (5^3E,5^4E)-2^2,2^2-Dimethyl-2^2,2^3-dihydro-3,6-diaza-5(3,5)-pyrazolo[1,5-a]pyrimidina-1(1,4)-piperazina-2(6,5)-benzofuranacyclooctaphan-4-one]	120
O=C1CCc2cc(NC(=O)c3cnn4cccnc34)c(N3CCOCC3)cc2N1 [Example 46, N-(7-Morpholino-2-oxo-1,2,3,4-tetrahydroquinolin-6-yl)pyrazolo[1,5-a]pyrimidine-3-carboxamide]	42
O=C(Nc1cc2c(cc1N1CCOCC1)N(CCO)C(=O)CC2)c1cnn2cccnc12 [Example 47, N-(1-(2-Hydroxyethyl)-7-morpholino-2-oxo-1,2,3,4-tetrahydroquinolin-6-yl)pyrazolo[1,5-a]pyrimidine-3-carboxamide]	53
O=C(Nc1cc2c(cc1N1CCOCC1)N(CCCO)C(=O)CC2)c1cnn2cccnc12 [Example 48, N-(1-(3-Hydroxypropyl)-7-morpholino-2-oxo-1,2,3,4-tetrahydroquinolin-6-yl)pyrazolo[1,5-a]pyrimidine-3-carboxamide]	240
C[C@@]1(CCC#N)COc2cc(N3CCOCC3)c(NC(=O)c3cnn4cccnc34)cc2C1 [Example 58, (S)—N-(3-(2-Cyanoethyl)-3-methyl-7-morpholinochroman-6-yl)pyrazolo[1,5-a]pyrimidine-3-carboxamide]	19
Cn1cc(COc2cc3c(cc2NC(=O)c2cnn4cccnc24)CN(C[C@@H](F)C(C)(C)O)C3=O)cn1 [Example 60, (R)—N-(2-(2-Fluoro-3-hydroxy-3-methylbutyl)-6-((1-methyl-1H-pyrazol-4-yl)methoxy)-1-oxoisoindolin-5-yl)pyrazolo[1,5-a]pyrimidine-3-carboxamide]	1.1
CC(C)(O)[C@H](F)CN1Cc2cc(NC(=O)c3cnn4cccnc34)c(O[C@H]3C[C@@H](F)C3)cc2C1=O [Example 61, N-[6-(3-Fluorocyclobutoxy)-2-[(2R)-2-fluoro-3-hydroxy-3-methyl-butyl]-1-oxo-isoindolin-5-yl]pyrazolo[1,5-a]pyrimidine-3-carboxamide]	0.28
CC(C)(O)[C@H](F)CN1Cc2cc(NC(=O)c3cnn4cccnc34)c(O[C@H]3CCNC3)cc2C1=O [Example 62, N-[2-[(2R)-2-Fluoro-3-hydroxy-3-methyl-butyl]-1-oxo-6-[(3S)-pyrrolidin-3-yl]oxy-isoindolin-5-yl]pyrazolo[1,5-a]pyrimidine-3-carboxamide]	9.2
CC(C)(O)[C@H](F)CN1Cc2cc(NC(=O)c3cnn4cccnc34)c(O[C@H]3C[C@@H](Cl)C3)cc2C1=O [Example 64, N-[6-(3-Chlorocyclobutoxy)-2-[(2R)-2-fluoro-3-hydroxy-3-methyl-butyl]-1-oxo-isoindolin-5-yl]pyrazolo[1,5-a]pyrimidine-3-carboxamide]	0.51
CC(C)(O)[C@H](F)CN1Cc2cc(NC(=O)c3cnn4cccnc34)c(OCC(F)F)cc2C1=O [Example 65, (R)-N-(6-(2,2-Difluoroethoxy)-2-(2-fluoro-3-hydroxy-3-methylbutyl)-1-oxoisoindolin-5-yl)pyrazolo[1,5-a]pyrimidine-3-carboxamide]	0.26
CC(C)(O)[C@H](F)CN1Cc2cc(NC(=O)c3cnn4cccnc34)c(O[C@H]3CC[C@@H](O)C3)cc2C1=O [Example 66, N-(2-((R)-2-Fluoro-3-hydroxy-3-methylbutyl)-6-(((1S,3R)-3-hydroxycyclopentyl)oxy)-1-oxoisoindolin-5-yl)pyrazolo[1,5-a]pyrimidine-3-carboxamide]	0.67
CC(C)Oc1cc2c(cc1NC(=O)c1cnn3cccnc13)CN([C@H]1CCOC1)C2=O [Example 68, (S)-N-(6-Isopropoxy-1-oxo-2-(tetrahydrofuran-3-yl)isoindolin-5-yl)pyrazolo[1,5-a]pyrimidine-3-carboxamide]	2.5
CC(C)(O)[C@H](F)CN1Cc2cc(NC(=O)c3cnn4cccnc34)c(OC3CCNCC3)cc2C1=O [Example 70, (R)-N-(2-(2-Fluoro-3-hydroxy-3-methylbutyl)-1-oxo-6-(piperidin-4-yloxy)isoindolin-5-yl)pyrazolo[1,5-a]pyrimidine-3-carboxamide]	0.7
CC(C)(O)[C@H](F)CN1Cc2cc(NC(=O)c3cnn4cccnc34)c(OC[C@@H]3CNC(=O)C3)cc2C1=O [Example 71, N-[2-[(2R)-2-Fluoro-3-hydroxy-3-methyl-butyl]-1-oxo-6-[[(3S)-5-oxopyrrolidin-3-yl]methoxy]isoindolin-5-yl]pyrazolo[1,5-a]pyrimidine-3-carboxamide]	3.2
CC(C)(O)[C@H](F)CN1Cc2cc(NC(=O)c3cnn4cccnc34)c(OC3CNC3)cc2C1=O [Example 73, N-[6-(Azetidin-3-yloxy)-2-[(2R)-2-fluoro-3-hydroxy-3-methyl-butyl]-1-oxo-isoindolin-5-yl]pyrazolo[1,5-a]pyrimidine-3-carboxamide hydrochloride]	3.7
CC(C)(O)[C@H](F)CN1Cc2cc(NC(=O)c3cnn4cccnc34)c(OC3CC3)cc2C1=O [Example 77, (R)—N-(6-Cyclopropoxy-2-(2-fluoro-3-hydroxy-3-methylbutyl)-1-oxoisoindolin-5-yl)pyrazolo[1,5-a]pyrimidine-3-carboxamide]	0.63
CC(C)Oc1cc2c(cc1NC(=O)c1cnn3cccnc13)CN(C[C@@H](F)C(C)(C)O)C2=O [Example 78, N-[2-[(2R)-2-Fluoro-3-hydroxy-3-methyl-butyl]-6-isopropoxy-1-oxo-isoindolin-5-yl]pyrazolo[1,5-a]pyrimidine-3-carboxamide]	0.17
CC(C)(O)[C@H](F)CN1Cc2cc(NC(=O)c3cnn4cccnc34)c(OCC3COC3)cc2C1=O [Example 79, (R)-N-(2-(2-Fluoro-3-hydroxy-3-methylbutyl)-6-(oxetan-3-ylmethoxy)-1-oxoisoindolin-5-yl)pyrazolo[1,5-a]pyrimidine-3-carboxamide]	0.97
